The record followed here is patent US20220282217A1, “COMPOSITIONS AND METHODS FOR PREPARING T CELL COMPOSITIONS AND USES THEREOF” (priority 2019, published 2022).

Structures are written as SMILES. Where two headings read alike, the source gives them in different places. Where a SMILES comes first, the peptide text is derived from it.

This experiment concerns the target HLA-A02.01 (Homo sapiens, UniProt P04439, D140Y/D185E/D98H/E176V/E277Q/G131W/G231S/I119V/I121R/I166T/I218V/L300P/L318F/N151K/N90K/P208A/P217A/Q86G/Q94H/R138H/R169H/T345S). The experiment in a line: Class I MHC peptide binding affinity (displacement of radiolabeled reference peptide). Particulars: for IC50: (nM)), allele A02.01. The gist of the method: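 Peptides compete against a prebound radiolabeled reference on MHCI over 2 days at several concentrations.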

Where [1] appears, read: read-out: Observed Affinity (IC50.

A word on the IC50: it is the concentration that inhibits the measured activity by half. Where the note is “Observed Affinity (IC50”, `CC[C@H](C)[C@H](NC(=O)[C@H](CC(=O)O)NC(=O)[C@H](CC(C)C)NC(=O)[C@@H](N)CC(C)C)C(=O)N[C@@H](CC(C)C)C(=O)N[C@@H](CC(=O)O)C(=O)N[C@H](C(=O)N[C@@H](C)C(=O)NCC(=O)N[C@@H](CC(C)C)C(=O)O)[C@@H](C)O` (H-LLDILDTAGL-OH; N-terminus and C-terminus assumed) displayed a concentration for half-maximal inhibition (IC50) of 716 nM.

As to `CC(C)C[C@H](NC(=O)[C@@H](N)CC(C)C)C(=O)NCC(=O)N[C@@H](CCCNC(=N)N)C(=O)N[C@@H](CC(N)=O)C(=O)N[C@@H](CO)C(=O)N[C@@H](Cc1ccccc1)C(=O)N[C@@H](CCC(=O)O)C(=O)N[C@H](C(=O)N[C@@H](CS)C(=O)O)C(C)C` (H-LLGRNSFEVC-OH; N-terminus and C-terminus assumed), under setting [1], the half-maximal inhibitory concentration (IC50) came to 2080 nM.

Consider `CC(C)C[C@H](NC(=O)[C@@H]1CCCN1C(=O)[C@@H]1CCCN1C(=O)[C@@H](NC(=O)[C@H](CC(=O)O)NC(=O)[C@H](CCC(=O)O)NC(=O)[C@@H]1CCCN1C(=O)[C@H](CC(C)C)NC(=O)[C@@H](N)CC(C)C)[C@@H](C)O)C(=O)O` (H-LLPEDTPPL-OH; N-terminus and C-terminus assumed), for which the IC50 under setting [1] stood at 2.8 nM.

Regarding `CC(C)C[C@H](NC(=O)[C@@H](N)CC(C)C)C(=O)N[C@@H](CCC(N)=O)C(=O)N[C@@H](CCC(=O)O)C(=O)N[C@@H](Cc1ccccc1)C(=O)N[C@@H](CC(=O)O)C(=O)N[C@H](C(=O)N[C@@H](CCC(N)=O)C(=O)N[C@@H](CCC(=O)O)C(=O)N[C@@H](C)C(=O)O)C(C)C` (H-LLQEFDVQEA-OH), the concentration for half-maximal inhibition (IC50) under setting [1] was determined as 45 nM.

Turning to `CC(C)C[C@H](NC(=O)[C@@H](N)CC(C)C)C(=O)N[C@@H](CCC(N)=O)C(=O)N[C@H](C(=O)N[C@H](C(=O)N[C@@H](CCC(N)=O)C(=O)N[C@H](C(=O)N[C@@H](CO)C(=O)N[C@@H](Cc1ccccc1)C(=O)N[C@@H](C)C(=O)O)[C@@H](C)O)[C@@H](C)O)C(C)C` (H-LLQVTQTSFA-OH; N-terminus and C-terminus assumed), under setting [1], the 50% inhibitory concentration (IC50) is 677 nM.

Turning to `CC(C)C[C@H](NC(=O)[C@@H](N)CC(C)C)C(=O)N[C@@H](CO)C(=O)N[C@H](C(=O)N1CCC[C@H]1C(=O)N1CCC[C@H]1C(=O)N[C@@H](CC(C)C)C(=O)N[C@@H](CO)C(=O)N1CCC[C@H]1C(=O)N[C@@H](CO)C(=O)O)[C@@H](C)O` (H-LLSTPPLSPS-OH; N-terminus and C-terminus assumed), the concentration for half-maximal inhibition (IC50) (Observed Affinity (IC50) was found to be 1770 nM.

Take `CC(C)C[C@H](NC(=O)[C@H](CCCNC(=N)N)NC(=O)[C@@H](NC(=O)[C@@H](N)CC(C)C)C(C)C)C(=O)N[C@@H](CO)C(=O)N[C@@H](CO)C(=O)N[C@@H](CS)C(=O)N[C@H](C(=O)N1CCC[C@H]1C(=O)N[C@H](C(=O)O)C(C)C)C(C)C` (H-LVRLSSCVPV-OH; N-terminus and C-terminus assumed): under setting [1], the concentration for half-maximal inhibition (IC50) is 1240 nM.

As to `CSCC[C@H](N)C(=O)N[C@@H](CO)C(=O)N[C@H](C(=O)N[C@@H](CS)C(=O)N[C@@H](Cc1ccccc1)C(=O)N[C@@H](Cc1ccccc1)C(=O)N[C@@H](Cc1ccccc1)C(=O)N[C@@H](Cc1ccccc1)C(=O)N[C@@H](CO)C(=O)N[C@H](C(=O)O)C(C)C)C(C)C` (H-MSVCFFFFSV-OH; N-terminus and C-terminus assumed), the concentration for half-maximal inhibition (IC50) under setting [1] worked out at 1710 nM.

Take `CC[C@H](C)[C@H](NC(=O)[C@@H](NC(=O)[C@@H](NC(=O)[C@H](CC(C)C)NC(=O)[C@@H](NC(=O)[C@@H]1CCCN1C(=O)[C@H](CCCNC(=N)N)NC(=O)[C@H](CCC(N)=O)NC(=O)[C@@H](N)CC(N)=O)[C@@H](C)CC)[C@@H](C)O)[C@@H](C)CC)C(=O)O` (H-NQRPILTII-OH; N-terminus and C-terminus assumed): the half-maximal inhibitory concentration (IC50) under setting [1] worked out at 9610 nM.

For `CC(C)[C@H](NC(=O)[C@H](Cc1c[nH]cn1)NC(=O)[C@@H](NC(=O)[C@H](CCC(=O)O)NC(=O)[C@H](Cc1ccccc1)NC(=O)[C@H](CO)NC(=O)[C@@H](N)CC(N)=O)C(C)C)C(=O)N[C@@H](CS)C(=O)N[C@@H](C)C(=O)O` (H-NSFEVHVCA-OH; N-terminus and C-terminus assumed), the IC50 under setting [1] came out at 503 nM.

Regarding `CC(C)C[C@H](NC(=O)[C@H](CC(C)C)NC(=O)[C@H](CC(=O)O)NC(=O)[C@H](CS)NC(=O)[C@H](CC(C)C)NC(=O)[C@@H]1CCCN1C(=O)[C@@H](NC(=O)[C@@H](NC(=O)[C@@H](N)CC(N)=O)C(C)C)C(C)C)C(=O)O` (H-NVVPLCDLL-OH; N-terminus and C-terminus assumed), the concentration for half-maximal inhibition (IC50) under setting [1] was 3030 nM.

With `CC(C)C[C@H](NC(=O)[C@H](CC(C)C)NC(=O)[C@H](CC(C)C)NC(=O)[C@H](CC(=O)O)NC(=O)[C@H](CS)NC(=O)[C@H](CC(C)C)NC(=O)[C@@H]1CCCN1C(=O)[C@@H](NC(=O)[C@@H](NC(=O)[C@@H](N)CC(N)=O)C(C)C)C(C)C)C(=O)O` (H-NVVPLCDLLL-OH; N-terminus and C-terminus assumed), the concentration for half-maximal inhibition (IC50) under setting [1] was 1370 nM.

In the case of `CC(C)C[C@H](NC(=O)[C@H](CC(C)C)NC(=O)[C@H](CC(=O)O)NC(=O)[C@H](CC(N)=O)NC(=O)[C@H](CC(C)C)NC(=O)[C@@H]1CCCN1C(=O)[C@@H](NC(=O)[C@@H](NC(=O)[C@@H](N)CC(N)=O)C(C)C)C(C)C)C(=O)O` (H-NVVPLNDLL-OH; N-terminus and C-terminus assumed), the IC50 under setting [1] was 2900 nM.

Consider `CC(C)C[C@H](NC(=O)[C@H](CC(C)C)NC(=O)[C@H](CC(C)C)NC(=O)[C@H](CC(=O)O)NC(=O)[C@H](CC(N)=O)NC(=O)[C@H](CC(C)C)NC(=O)[C@@H]1CCCN1C(=O)[C@@H](NC(=O)[C@@H](NC(=O)[C@@H](N)CC(N)=O)C(C)C)C(C)C)C(=O)O` (H-NVVPLNDLLL-OH; N-terminus and C-terminus assumed), for which the concentration for half-maximal inhibition (IC50) under setting [1] was determined as 4190 nM.

As to `CC(C)C[C@H](NC(=O)[C@H](CC(C)C)NC(=O)[C@H](CC(=O)O)NC(=O)[C@H](CO)NC(=O)[C@H](CC(C)C)NC(=O)[C@@H]1CCCN1C(=O)[C@@H](NC(=O)[C@@H](NC(=O)[C@@H](N)CC(N)=O)C(C)C)C(C)C)C(=O)O` (H-NVVPLSDLL-OH; N-terminus and C-terminus assumed), under setting [1], the IC50 turned out to be 916 nM.

For `CC(C)C[C@H](NC(=O)[C@H](CC(C)C)NC(=O)[C@H](CC(C)C)NC(=O)[C@H](CC(=O)O)NC(=O)[C@H](CO)NC(=O)[C@H](CC(C)C)NC(=O)[C@@H]1CCCN1C(=O)[C@@H](NC(=O)[C@@H](NC(=O)[C@@H](N)CC(N)=O)C(C)C)C(C)C)C(=O)O` (H-NVVPLSDLLL-OH; N-terminus and C-terminus assumed), under setting [1], the concentration for half-maximal inhibition (IC50) was found to be 741 nM.

In the case of `CC(C)C[C@H](NC(=O)[C@H](CC(C)C)NC(=O)CNC(=O)[C@H](Cc1ccc(O)cc1)NC(=O)[C@H](CC(C)C)NC(=O)[C@@H]1CCCN1C(=O)[C@@H](NC(=O)[C@@H](NC(=O)[C@@H](N)CC(N)=O)C(C)C)C(C)C)C(=O)O` (H-NVVPLYGLL-OH; N-terminus and C-terminus assumed), under setting [1], the IC50 was found to be 10500 nM.

For `CSCC[C@H](NC(=O)[C@H](CCC(=O)O)NC(=O)[C@H](CC(C)C)NC(=O)[C@H](CC(C)C)NC(=O)[C@H](CC(C)C)NC(=O)[C@H](CC(=O)O)NC(=O)[C@H](CC(N)=O)NC(=O)[C@H](CC(C)C)NC(=O)[C@@H]1CCCN1)C(=O)N[C@@H](CC(C)C)C(=O)O` (H-PLNDLLLEML-OH; N-terminus and C-terminus assumed), the IC50 under setting [1] amounted to 12000 nM.

Turning to `CSCC[C@H](NC(=O)[C@H](CCC(=O)O)NC(=O)[C@H](CC(C)C)NC(=O)[C@H](CC(C)C)NC(=O)[C@H](CC(C)C)NC(=O)[C@H](CC(=O)O)NC(=O)[C@H](CO)NC(=O)[C@H](CC(C)C)NC(=O)[C@@H]1CCCN1)C(=O)N[C@@H](CC(C)C)C(=O)O` (H-PLSDLLLEML-OH; N-terminus and C-terminus assumed), the IC50 under setting [1] was determined as 6470 nM.

On to `CC[C@H](C)[C@H](NC(=O)[C@H](CC(C)C)NC(=O)[C@@H](N)CCC(N)=O)C(=O)N[C@@H](CCSC)C(=O)N[C@@H](CCC(N)=O)C(=O)N[C@@H](CC(C)C)C(=O)N[C@@H](CCSC)C(=O)N1CCC[C@H]1C(=O)N[C@@H](Cc1ccccc1)C(=O)NCC(=O)O` (H-QLIMQLMPFG-OH; N-terminus and C-terminus assumed), for which, under “EGFR T790M peptides, HLA allele A02.01, read-out: Affinity”, the Kd is 5.21 µM. For the same compound, the IC50 under setting [1] is 5930 nM.

As for `CC(C)C[C@H](NC(=O)[C@H](CC(=O)O)NC(=O)[C@H](CO)NC(=O)[C@H](CCC(N)=O)NC(=O)[C@H](CCC(N)=O)NC(=O)[C@@H](N)CCC(N)=O)C(=O)N[C@@H](CCC(N)=O)C(=O)N1CCC[C@H]1C(=O)N1CCC[C@H]1C(=O)N[C@@H](C)C(=O)O` (H-QQQSDLQPPA-OH; N-terminus and C-terminus assumed), for the setting “Observed Affinity (IC50”, the concentration for half-maximal inhibition (IC50) stood at 646 nM.

`CC(C)C[C@H](NC(=O)[C@H](CC(=O)O)NC(=O)[C@H](CO)NC(=O)[C@H](CCC(N)=O)NC(=O)[C@@H](N)CCC(N)=O)C(=O)N[C@@H](CCC(N)=O)C(=O)N1CCC[C@H]1C(=O)N1CCC[C@H]1C(=O)N[C@@H](C)C(=O)O` (H-QQSDLQPPA-OH; N-terminus and C-terminus assumed) returned a half-maximal inhibitory concentration (IC50) (Observed Affinity (IC50) of 70 nM.

`CC[C@H](C)[C@H](NC(=O)[C@H](CCSC)NC(=O)[C@@H](NC(=O)CNC(=O)[C@@H](NC(=O)[C@@H](N)CCC(N)=O)[C@@H](C)O)C(C)C)C(=O)N[C@@H](CS)C(=O)N[C@@H](C)C(=O)N[C@@H](Cc1ccc(O)cc1)C(=O)N[C@@H](CC(C)C)C(=O)O` (H-QTGVMICAYL-OH; N-terminus and C-terminus assumed): the 50% inhibitory concentration (IC50) under setting [1] stood at 9760 nM.

For `CC(C)C[C@H](NC(=O)[C@H](Cc1c[nH]cn1)NC(=O)[C@H](Cc1c[nH]c2ccccc12)NC(=O)[C@H](CC(C)C)NC(=O)[C@@H](N)CCCNC(=N)N)C(=O)N[C@@H](CC(C)C)C(=O)N[C@@H](CC(C)C)C(=O)N[C@@H](CCC(N)=O)C(=O)N[C@H](C(=O)O)C(C)C` (H-RLWHLLLQV-OH; N-terminus and C-terminus assumed), the IC50 under setting [1] is 1.3 nM.
